Molecules are shown by their SMILES.

For this test, the target named is T1, small-conductance Ca2+-activated K+ channels (SK channels, subtype 2) (Homo sapiens, UniProt Q9H2S1).
T1 construct: expressed in transfected cells; host or cells: HEK293
The test is described as follows: whole-cell patch-clamp of ionic current through SK2 channels in HEK293 cells (SC100). The format is cell-based. The conditions noted are these: concentration that increases the basal current by 100%; HEK293 cells expressing SK2 channels. An outline of the steps: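 SC100, the concentration doubling basal current (a 100% increase), was taken from SK2 currents recorded by whole-cell patch-clamp in SK2-expressing HEK293 cells.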
Background: In patch-clamp work, channel activity is measured electrically.

Turning to `Cc1cc(C)n(-c2cc(NC3COC3)cc(NC3CCC(F)(F)CC3)n2)n1` [Compound 228, N2-(4,4-difluorocyclohexyl)-6-(3,5-dimethyl-1H-pyrazol-1-yl)-N4-(oxetan-3-yl)pyridine-2,4-diamine], the SC100 result was “++ (++ means 200 nM-1000 nM)”. Regarding `Cc1cc(C)n(-c2cc(CF)cc(NC3CCC(F)(F)CC3)n2)n1` [Compound 229, N-(4,4-difluorocyclohexyl)-6-(3,5-dimethyl-1H-pyrazol-1-yl)-4-(fluoromethyl)pyridin-2-amine], the SC100 entry is recorded as “++ (++ means 200 nM-1000 nM)”.

Turning to `Cc1cc(NC2CCC(F)(F)CC2)nc(-c2cccc(Cl)n2)n1` [Compound 230, 2-(6-chloropyridin-2-yl)-N-(4,4-difluorocyclohexyl)-6-methyl pyrimidin-4-amine], the SC100 result is recorded as “+ (+ means >1 uM)”. To `Cc1cc(NC2CCC(F)(F)CC2)nc(-c2nc(C)cs2)n1` [Compound 231, N-(4,4-difluorocyclohexyl)-6-methyl-2-(4-methylthiazol-2-yl)pyrimidin-4-amine] belongs “++ (++ means 200 nM-1000 nM)”. In the case of `Cc1ccn(-c2nc(NC3CCC(F)(F)CC3)cc(C3COCCC3O)n2)n1` (centres unmarked) [Compound 232, 3-(6-((4,4-difluorocyclohexyl)amino)-2-(3-methyl-1H-pyrazol-1-yl)pyrimidin-4-yl)tetrahydro-2H-pyran-4-ol] it was “+ (+ means >1 uM)”. In the case of `Cc1cc(C)n(-c2nc(NCc3cn(C)nn3)cc(NC3CCC(F)(F)CC3)n2)n1` [Compound 233, N4-(4,4-difluorocyclohexyl)-2-(3,5-dimethyl-1H-pyrazol-1-yl)-N6-((1-methyl-1H-1,2,3-triazol-4-yl)methyl)pyrimidine-4,6-diamine] it was “++ (++ means 200 nM-1000 nM)”; in that of `Cc1cc(C)n(-c2cc(NCC(C)(C)C)cc(NC3CCC(F)(F)CC3)n2)n1` [Compound 234, N2-(4,4-difluorocyclohexyl)-6-(3,5-dimethyl-1H-pyrazol-1-yl)-N4-neopentylpyridine-2,4-diamine], “+ (+ means >1 uM)”; in that of `Cc1cc(C)n(-c2nc(NCc3cnn(C)n3)cc(NC3CCC(F)(F)CC3)n2)n1` [Compound 235, N4-(4,4-difluorocyclohexyl)-2-(3,5-dimethyl-1H-pyrazol-1-yl)-N6-((2-methyl-2H-1,2,3-triazol-4-yl)methyl)pyrimidine-4,6-diamine], “++ (++ means 200 nM-1000 nM)”. For the compound `Cc1cc(NC2CCC(F)(F)CC2)nc(-n2cc(C)c(CO)n2)n1` [Compound 236, (1-(4-((4,4-difluorocyclohexyl)amino)-6-methylpyrimidin-2-yl)-4-methyl-1H-pyrazol-3-yl)methanol], the SC100 result is recorded as “+ (+ means >1 uM)”. In the case of `Cc1cc(NC2CCC(F)(F)CC2)nc(-n2nc(C(F)F)cc2C)n1` [Compound 237, N-(4,4-difluorocyclohexyl)-2-(3-(difluoromethyl)-5-methyl-1H-pyrazol-1-yl)-6-methylpyrimidin-4-amine] it was “++ (++ means 200 nM-1000 nM)”; in that of `Cc1cc(C)n(-c2cc(N(C)C3COC3)cc(NC3CCC(F)(F)CC3)n2)n1` [Compound 238, N2-(4,4-difluorocyclohexyl)-6-(3,5-dimethyl-1H-pyrazol-1-yl)-N4-methyl-N4-(oxetan-3-yl)pyridine-2,4-diamine], “++ (++ means 200 nM-1000 nM)”; in that of `Cc1cc(C)n(-c2cc(NC(C(N)=O)C(C)C)cc(NC3CCC(F)(F)CC3)n2)n1` (centres unmarked) [Compound 239, 2-((2-((4,4-difluorocyclohexyl)amino)-6-(3,5-dimethyl-1H-pyrazol-1-yl)pyridin-4-yl)amino)-3-methylbutanamide], “++ (++ means 200 nM-1000 nM)”. To `Cc1cc(C)n(-c2cc(N(C)C3COC3)cc(N(C)C3CCC(F)(F)CC3)n2)n1` [Compound 240, N2-(4,4-difluorocyclohexyl)-6-(3,5-dimethyl-1H-pyrazol-1-yl)-N2,N4-dimethyl-N4-(oxetan-3-yl)pyridine-2,4-diamine] belongs “+ (+ means >1 uM)”; to `Cc1cc(NC2CCC(F)(F)CC2)nc(-n2nc(CO)cc2C)n1` [Compound 241, (1-(4-((4,4-difluorocyclohexyl)amino)-6-methylpyrimidin-2-yl)-5-methyl-1H-pyrazol-3-yl)methanol], “+ (+ means >1 uM)”; to `Cc1ccn(-c2nc(NC3CCC(F)(F)CC3)cc(C3COCCC3(F)F)n2)n1` (centres unmarked) [Compound 242, N-(4,4-difluorocyclohexyl)-6-(4,4-difluorotetrahydro-2H-pyran-3-yl)-2-(3-methyl-1H-pyrazol-1-yl)pyrimidin-4-amine], “+ (+ means >1 uM)”. In the case of `Cc1cc(C)n(-c2nc(NC3CCC(F)(F)CC3)cc(NC3COC3)n2)n1` [Compound 243, N4-(4,4-difluorocyclohexyl)-2-(3,5-dimethyl-1H-pyrazol-1-yl)-N6-(oxetan-3-yl)pyrimidine-4,6-diamine] it was “+ (+ means >1 uM)”; in that of `Cc1cc(C)n(-c2cc(OCc3cn(C)nn3)cc(NC3CCC(F)(F)CC3)n2)n1` [Compound 244, N-(4,4-difluorocyclohexyl)-6-(3,5-dimethyl-1H-pyrazol-1-yl)-4-((l-methyl-1H-1,2,3-triazol-4-yl)methoxy)pyridin-2-amine], “++ (++ means 200 nM-1000 nM)”. Regarding `Cc1cc(NC2C[C@@H]3[C@H](C2)C3(F)F)nc(-n2ccc(C)n2)n1` (stereo partly drawn) [Compound 245, N-((1R,5S)-6,6-difluorobicyclo[3.1.0]hexan-3-yl)-6-methyl-2-(3-methyl-1H-pyrazol-1-yl)pyrimidin-4-amine], the SC100 result was “+ (+ means >1 uM)”. In the case of `Cc1cc(NC2CCC(F)(F)CC2)nc(-n2cc(C)c(C(F)F)n2)n1` [Compound 246, N-(4,4-difluorocyclohexyl)-2-(3-(difluoromethyl)-4-methyl-1H-pyrazol-1-yl)-6-methylpyrimidin-4-amine] it was “+++ (+++ means <200 nM)”. With `Cc1cc(NC2CCC(F)(F)CC2)nc(-n2nc(C)cc2C)n1` [Compound 247, N-(4,4-difluorocyclohexyl)-2-(3,5-dimethyl-1H-pyrazol-1-yl)-6-methylpyrimidin-4-amine], the SC100 result is “++ (++ means 200 nM-1000 nM)”. Take `Cc1cc(C)n(-c2cc(NCc3cnn(C)n3)cc(NC3CCC(F)(F)CC3)n2)n1` [Compound 248, N2-(4,4-difluorocyclohexyl)-6-(3,5-dimethyl-1H-pyrazol-1-yl)-N4-((2-methyl-2H-1,2,3-triazol-4-yl)methyl)pyridine-2,4-diamine]: the SC100 entry is “++ (++ means 200 nM-1000 nM)”. To `CCc1cc(C)n(-c2nc(C)cc(NC3CCC(F)(F)CC3)n2)n1` [Compound 249, N-(4,4-difluorocyclohexyl)-2-(3-ethyl-5-methyl-1H-pyrazol-1-yl)-6-methyl pyrimidin-4-amine] belongs “+ (+ means >1 uM)”; to `Cc1cc(C)n(-c2cc(NCc3cnnn3C)cc(NC3CCC(F)(F)CC3)n2)n1` [Compound 250, N2-(4,4-difluorocyclohexyl)-6-(3,5-dimethyl-1H-pyrazol-1-yl)-N4-((1-methyl-1H-1,2,3-triazol-5-yl)methyl)pyridine-2,4-diamine], “++ (++ means 200 nM-1000 nM)”; to `Cc1cc(C)n(-c2cc(OCc3cnn(C)n3)cc(NC3CCC(F)(F)CC3)n2)n1` [Compound 251, N-(4,4-difluorocyclohexyl)-6-(3,5-dimethyl-1H-pyrazol-1-yl)-4-((2-methyl-2H-1,2,3-triazol-4-yl)methoxy)pyridin-2-amine], “++ (++ means 200 nM-1000 nM)”. To `Cc1cc(C)n(-c2cc(NCc3nnc(C)o3)cc(NC3CCC(F)(F)CC3)n2)n1` [Compound 252, N2-(4,4-difluorocyclohexyl)-6-(3,5-dimethyl-1H-pyrazol-1-yl)-N4-((5-methyl-1,3,4-oxadiazol-2-yl)methyl)pyridine-2,4-diamine] belongs “+ (+ means >1 uM)”; to `Cc1cc(NC2CCC(F)(F)CC2)nc(-n2cc(C)c(C#N)n2)n1` [Compound 253, 1-(4-((4,4-difluorocyclohexyl)amino)-6-methylpyrimidin-2-yl)-4-methyl-1H-pyrazole-3-carbonitrile], “++ (++ means 200 nM-1000 nM)”.

As for `Cc1cc(C)n(-c2nc(NC3CCC(F)(F)CC3)cc([C@@H]3COCC[C@H]3O)n2)n1` [Compound 254, (+)-3-(6-((4,4-difluorocyclohexyl)amino)-2-(3,5-dimethyl-1H-pyrazol-1-yl)pyrimidin-4-yl)tetrahydro-2H-pyran-4-ol], the SC100 result was “+ (+ means >1 uM)”.

On to `Cc1cc(C)n(-c2cc(NC(C)c3nccs3)cc(NC3CCC(F)(F)CC3)n2)n1` (centres unmarked) [Compound 255, N2-(4,4-difluorocyclohexyl)-6-(3,5-dimethyl-1H-pyrazol-1-yl)-N4-(1-(thiazol-2-yl)ethyl)pyridine-2,4-diamine], for which the SC100 entry is reported as “+ (+ means >1 uM)”. In the case of `Cc1cc(NC2CCC(F)(F)CC2)nc(-n2nc(CF)cc2C)n1` [Compound 256, N-(4,4-difluorocyclohexyl)-2-(3-(fluoromethyl)-5-methyl-1H-pyrazol-1-yl)-6-methylpyrimidin-4-amine] it was “++ (++ means 200 nM-1000 nM)”.

For the compound `Cc1cc(NC2CCC(F)(F)CC2)nc(-n2cc(C)c(CF)n2)n1` [Compound 258, N-(4,4-difluorocyclohexyl)-2-(3-(fluoromethyl)-4-methyl-1H-pyrazol-1-yl)-6-methylpyrimidin-4-amine], the SC100 result is recorded as “++ (++ means 200 nM-1000 nM)”. `Cc1cc(C)n(-c2cc(NCc3ncco3)cc(NC3CCC(F)(F)CC3)n2)n1` [Compound 259, N2-(4,4-difluorocyclohexyl)-6-(3,5-dimethyl-1H-pyrazol-1-yl)-N4-(oxazol-2-ylmethyl)pyridine-2,4-diamine]: the SC100 entry is “+ (+ means >1 uM)”.

With `CCc1cc(C)nn1-c1nc(C)cc(NC2CCC(F)(F)CC2)n1` [Compound 260, N-(4,4-difluorocyclohexyl)-2-(5-ethyl-3-methyl-1H-pyrazol-1-yl)-6-methylpyrimidin-4-amine], the SC100 entry is “+ (+ means >1 uM)”.

For the origin of these results see patent US10774064B2 (Cadent Therapeutics, Inc., priority 2016, dated 2020).
